Experiments:
[1] = parameters: method as in PMID 28441771, PMID 29231907, PMID 28587113; details: preclinical and clinical studies; cited from earlier work
Cal27 and JHU029 cells = test: HNC cell cytotoxicity assay of other bitter melon compounds (Figure S1); assay type: cell-based, human; details: 48 hr
Experimental: Cal27, JHU029, JHU022 and NOK were seeded in 96 well-plate (5000 cells/well) and cells were treated with different concentration of M-I for 48 h. There were untreated control and DMSO treated vehicle control group for comparison. Cytotoxicity assay was performed using Cell Counting Kit-8 (Dojindo Molecular Technology, Rockville, MD, USA) according to manufacturer instruction.
Supplementary Materials: Momordicine-I, a Bitter
Activity in Head and Neck Cancer Involving c-Met
Figure S1. Cal27 and JHU029 ells were treated with momordicine-I (M-I), momordicosideK (MK), karavilageninD (KD) at indicated doses for 48 hr and cytotoxicity assay was performed. Small bar indicates standard error.
Figure S2. Whole blot for Figure 2A. […]

[2] = literature-reported biology of the tentatively identified metabolite; no reference given; cited from earlier work

## COc1cc2c(Oc3ccc(NC(=O)C4(C(=O)Nc5ccc(F)cc5)CC4)cc3F)ccnc2cc1OCCCN1CCOCC1 [Foretinib]
[1]
  adverse side effects: fatigue, hypertension, and gastrointestinal toxicities

## CN1CCN(C2CCN(C(=O)Nc3cc(Oc4ccc(NC(=O)C5(C(=O)Nc6ccc(F)cc6)CC5)c(F)c4)ccn3)CC2)CC1 [Golvatinib]
[1]
  adverse side effects: supraventricular tachycardia, convulsion, and pulmonary embolism

## C[C@H](C/C=C/C(C)(C)O)[C@H]1CC[C@@]2(C)[C@@H]3C=C[C@@]45OC(=O)[C@]3(CC[C@]12C)[C@@H]4CC[C@H](O)C5(C)C [KD, karavilagenin D]
Cal27 and JHU029 cells
  amount required for ~40% cell death: > 50 µg/mL

## CO[C@H]1C=C2[C@@H](CC[C@H](O[C@@H]3O[C@H](CO)[C@@H](O)[C@@H](O)[C@H]3O)C2(C)C)[C@]2(C)CC[C@]3(C)[C@@H]([C@H](C)C/C=C/C(C)(C)O)CC[C@@]3(C)[C@H]12 [Karaviloside III]
[2]
  Reported Biology: cytotoxic activity against Hep3B and HepG2 cell lines

## C[C@H](C[C@@H](O)[C@H](O)C(C)(C)O)[C@H]1CC[C@@]2(C)[C@@H]3C=C[C@@]45OC[C@]3(CC[C@]12C)[C@@H]4CC[C@H](O[C@@H]1O[C@H](CO)[C@@H](O)[C@@H](O)[C@H]1O)C5(C)C [Karaviloside XI]
[2]
  Reported Biology: Antidiabetic

## COC(C)(C)/C=C/C[C@@H](C)[C@H]1CC[C@@]2(C)[C@@H]3[C@@H](O[C@@H]4O[C@H](CO)[C@@H](O)[C@H](O)[C@H]4O)C=C4[C@@H](CC[C@H](O)C4(C)C)[C@]3(C=O)CC[C@]12C [MK, momordicoside K]
Cal27 and JHU029 cells
  amount required for ~40% cell death: > 50 µg/mL

## C[C@H](C/C=C/C(C)(C)O)[C@H]1CC[C@@]2(C)[C@@H]3[C@@H](O[C@@H]4O[C@H](CO)[C@@H](O)[C@H](O)[C@H]4O)C=C4[C@@H](CC[C@H](O)C4(C)C)[C@]3(C=O)CC[C@]12C [Momordicoside L]
[2]
  Reported Biology: Weak α-glucosidase inhibition

## Sacranoside A
[2]
  Reported Biology: nitric oxide inhibitory effect

From paper PMC8003975 (Cancers, 2021)
